Reference: US10933091B1, “Composition and method for the treatment of type I diabetes” (Vector Vitale IP LLC, priority 2019, dated 2021)

Experiments:
[1] = Intraperitoneal administration to intact rats: accumulation of metals in liver and kidney tissues; settings: day 1 and day 7 after discontinuation, in words
Experimental: The administration of these compositions was by intraperitoneal route.
Animals are placed in cages, 4 per cage, with free access to food/water. […] Administration is performed every other day, in the amount of 7 injections per animal (intraperitoneal method of drug administration). The dose of the drug injected to each animal was calculated on the basis of the ratio: 3750 μg of zinc per 1 kg of animal body weight. After the last injection, a half of the animals are maintained on hunger (for 12 hours) with free access to water. Upon expiration of this time period, the animals are taken out of the experiment. The second half of the animals continues to have free access to food/water for a further 7 days. On day 6 after the last injection, the animals are maintained on hunger (for 12 hours) with free access to water. Upon expiration of this time period, the animals are taken out of the experiment.
The total kidney, liver and muscle homogenates were prepared as follows. Organ excision and homogenization were carried out at a temperature of 1-4° C. Homogenization of tissues was carried out in 50 mM Tris-HCl buffer (pH 7.4) which contained 140 mM NaCl, 1 mM EDTA. The volume of the used buffer in ml was 5 times larger than the mass of isolated organs in grams. The isolated liver was perfused with chilled saline (0.9% NaCl) via the portal vein using a syringe. […]

[2] = Levels of divalent metal ions in muscles, kidneys and liver, diet-induced obesity study; settings: DIO rats (high-fat diet)
[3] = Serum biochemistry (albumin, triglycerides, cholesterol, free fatty acids), diet-induced obesity study; settings: DIO rats (high-fat diet), week 10
Experimental: The levels of serum albumin in the animals were determined spectrophotometrically using a Microlab 300 biochemistry analyzer and standard PLIVA-Lachema Diagnostika test kits (Czech Republic).

[4] = test system: peripheral serotonergic system (duodenum); experiment: Indicators of the peripheral serotonergic system (duodenum); type: in vivo, rats
Text: (§1) The tissue: buffer ratio was 1:10.
(§2) The samples were reprecipitated by centrifugation.
(§3) University. Medicine.-2000.-1, No. 494.-P. 40-43.
(§4) The supernatant was used in further studies.

[5] = test system: central serotonergic system (brain); experiment: Indicators of the central serotonergic system (brain); type: in vivo, rats
Text: as §1, §2, §3, §4

[6] = test system: tryptophan, serotonin, monoamine oxidase; experiment: Serum tryptophan, serotonin and monoamine oxidase activity; type: in vivo, rats
Text: as §2, §3

[7] = test system: alkaline phosphatase; settings: serum; DIO rats (high-fat diet), week 10
Experimental: To this end, high-fat diet obesity was induced in experimental animals as described in Example 2.
Serum alkaline phosphatase activity in the animals was measured spectrophotometrically using a Microlab 300 biochemical analyzer and standard PLIVA-Lachema Diagnostika test kits (Czech Republic).
As a result of hydrolytic cleavage of p-nitrophenyl phosphate catalyzed by alkaline phosphatase, p-nitrophenol is formed, which gives an intense yellow color in alkaline medium. The optical density of samples was measured at a wavelength of 405 nm. The alkaline phosphatase activity was expressed in relative units.

In the case of `CC(=O)[O-].CC(=O)[O-].[Zn+2]` [Zn acetate, Zinc acetate, reference compound], the “zinc level in kidney and liver tissues” value [1] was “significantly increased”.

`N[C@@H](CC(=O)[O-])C(=O)[O-].[Zn+2]` [^64Zne, zinc aspartate] gave a Zinc level ([2]; kidneys) of 20.28 ± 1.75 μg/ tissue, a Zinc level ([2]; liver) of 31.43 ± 1.78 μg/ tissue and a Zinc level ([2]; muscles) of 9.10 ± 0.42 μg/ tissue. The Albumin levels [3] was 166.2 ± 15.8 RU, the Cholesterol [3] was 2.83 ± 0.23 mmol/L and the Free fatty acids [3] was 31.62 ± 7.92 mg/L. The Triglycerides [3] was 2.79 ± 0.30 g/L, the Serotonin ([4]; DIO rats (high-fat diet)) was 9.73 µg/g and the Tryptophan ([4]; DIO rats (high-fat diet)) was 89.4 µg/g. For the same compound, the Serotonin ([4]; control rats (standard diet)) was 7.41 ± 0.54 µg/g, the Tryptophan ([4]; control rats (standard diet)) was 154.7 ± 13.6 µg/g and the “zinc level in kidney and liver tissues” value [1] was “significantly increased”. The Serotonin ([5]; DIO rats (high-fat diet)) was 20.1 µg/g, the Tryptophan ([5]; DIO rats (high-fat diet)) was 31.56 µg/g and the Serotonin ([5]; control rats (standard diet)) was 25.51 ± 2.71 µg/g. For the same compound, the Tryptophan ([5]; control rats (standard diet)) was 87.71 ± 3.41 µg/g, the Serotonin ([6]; DIO rats (high-fat diet)) was 6.33 ± 0.51 µg/g and the Tryptophan ([6]; DIO rats (high-fat diet)) was 66.65 ± 9.62 µg/g. For the same compound, the Serotonin ([6]; control rats (standard diet)) was 10.16 ± 0.62 µg/g, the Tryptophan ([6]; control rats (standard diet)) was 56.12 ± 7.58 µg/g and the Alkaline phosphatase activity [7] was 87.6 ± 18.7 RU.
